# Test results as given in ChEMBL document CHEMBL4613301, “Molecular Docking Studies of Royleanone Diterpenoids from Plectranthus spp. as P-Glycoprotein Inhibitors” (ACS Med Chem Lett, 2020).
# Target: T1, ATP-dependent translocase ABCB1 (Homo sapiens, UniProt P08183)
# Experiment: Inhibition of P-gp in human NCI-H460/R cells assessed as mean fluorescence intensity of Rhodamine 123 at 20 uM (reference value: 16.96)
# Format: cell-based
# T1 sequence (P08183 whole entry): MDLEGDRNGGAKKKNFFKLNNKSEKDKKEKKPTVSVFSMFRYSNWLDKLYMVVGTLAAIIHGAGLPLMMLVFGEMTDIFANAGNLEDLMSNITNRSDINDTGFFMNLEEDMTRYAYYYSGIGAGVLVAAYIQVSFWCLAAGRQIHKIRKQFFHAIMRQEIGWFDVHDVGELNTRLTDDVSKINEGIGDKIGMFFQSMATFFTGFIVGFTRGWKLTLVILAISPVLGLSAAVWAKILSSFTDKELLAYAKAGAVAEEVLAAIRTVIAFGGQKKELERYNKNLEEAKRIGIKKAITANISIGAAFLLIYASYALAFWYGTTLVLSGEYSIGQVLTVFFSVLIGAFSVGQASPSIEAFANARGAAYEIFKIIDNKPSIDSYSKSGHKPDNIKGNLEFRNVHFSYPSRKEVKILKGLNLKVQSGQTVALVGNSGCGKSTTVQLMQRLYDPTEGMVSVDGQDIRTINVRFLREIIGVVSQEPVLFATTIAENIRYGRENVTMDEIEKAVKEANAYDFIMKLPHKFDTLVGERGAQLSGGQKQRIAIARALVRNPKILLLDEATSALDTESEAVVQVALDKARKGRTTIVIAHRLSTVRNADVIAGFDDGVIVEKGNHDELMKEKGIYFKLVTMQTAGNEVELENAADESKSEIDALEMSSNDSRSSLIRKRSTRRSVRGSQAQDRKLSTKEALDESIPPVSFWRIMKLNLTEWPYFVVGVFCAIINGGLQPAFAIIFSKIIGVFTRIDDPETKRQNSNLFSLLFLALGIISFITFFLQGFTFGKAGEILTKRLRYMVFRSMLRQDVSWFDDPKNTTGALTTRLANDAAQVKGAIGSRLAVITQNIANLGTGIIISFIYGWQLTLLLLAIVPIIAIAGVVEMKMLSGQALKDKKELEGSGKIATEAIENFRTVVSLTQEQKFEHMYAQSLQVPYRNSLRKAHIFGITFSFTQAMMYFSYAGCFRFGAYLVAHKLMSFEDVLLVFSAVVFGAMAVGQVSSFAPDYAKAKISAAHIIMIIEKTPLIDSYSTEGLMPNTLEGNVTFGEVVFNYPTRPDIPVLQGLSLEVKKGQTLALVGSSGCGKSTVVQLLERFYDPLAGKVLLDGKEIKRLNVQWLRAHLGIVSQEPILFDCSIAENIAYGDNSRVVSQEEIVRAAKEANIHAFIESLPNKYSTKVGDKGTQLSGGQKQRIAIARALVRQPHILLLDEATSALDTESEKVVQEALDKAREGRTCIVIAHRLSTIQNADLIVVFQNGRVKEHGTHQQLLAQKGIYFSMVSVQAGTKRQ
row,SMILES,FI
1,CC(=O)O[C@H]1C2=C(C(=O)C(OC(=O)c3ccccc3)=C(C(C)C)C2=O)[C@@]2(C)CCCC(C)(C)[C@@H]2[C@@H]1O,35.54
2,COc1ccc(CCN(C)CCC[C@](C#N)(c2ccc(OC)c(OC)c2)C(C)C)cc1OC [DEXVERAPAMIL],36.07
3,CC(=O)O[C@H]1C2=C(C(=O)C(OC(=O)c3ccc(Cl)cc3)=C(C(C)C)C2=O)[C@@]2(C)CCCC(C)(C)[C@@H]2[C@@H]1OC(=O)c1ccc(Cl)cc1,28.97

# Target: T1, ATP-dependent translocase ABCB1
# Experiment: Inhibition of P-gp in human NCI-H460/R cells assessed as fluorescence activity ratio at 20 uM relative to control
# Format: cell-based
row,SMILES,Ratio
1,CC(=O)O[C@H]1C2=C(C(=O)C(OC(=O)c3ccccc3)=C(C(C)C)C2=O)[C@@]2(C)CCCC(C)(C)[C@@H]2[C@@H]1O,2.1
2,COc1ccc(CCN(C)CCC[C@](C#N)(c2ccc(OC)c(OC)c2)C(C)C)cc1OC [DEXVERAPAMIL],2.13
3,CC(=O)O[C@H]1C2=C(C(=O)C(OC(=O)c3ccc(Cl)cc3)=C(C(C)C)C2=O)[C@@]2(C)CCCC(C)(C)[C@@H]2[C@@H]1OC(=O)c1ccc(Cl)cc1,1.71

# Target: T1, ATP-dependent translocase ABCB1
# Experiment: Ratio of inhibition of P-gp in human NCI-H460/R cells assessed as mean fluorescence intensity at 20 uM relative to control
# Format: cell-based
row,SMILES,Ratio
1,CC(=O)O[C@H]1C2=C(C(=O)C(OC(=O)c3ccccc3)=C(C(C)C)C2=O)[C@@]2(C)CCCC(C)(C)[C@@H]2[C@@H]1O,26.5
2,COc1ccc(CCN(C)CCC[C@](C#N)(c2ccc(OC)c(OC)c2)C(C)C)cc1OC [DEXVERAPAMIL],26.9
3,CC(=O)O[C@H]1C2=C(C(=O)C(OC(=O)c3ccc(Cl)cc3)=C(C(C)C)C2=O)[C@@]2(C)CCCC(C)(C)[C@@H]2[C@@H]1OC(=O)c1ccc(Cl)cc1,21.6
